The target of this assay is T1, bovine serum albumin (BSA) (Bos taurus, UniProt P02769).
T1 construct: gene ALB
The assay can be described thus: intrinsic fluorescence quenching (double-log Stern-Volmer, binding constant K at […] K); supported by UV absorption, CD and warfarin probe displacement. The note with it: read-out: K (10^4 L.mol^- 1) (converted).

T1 sequence (P02769 25-607): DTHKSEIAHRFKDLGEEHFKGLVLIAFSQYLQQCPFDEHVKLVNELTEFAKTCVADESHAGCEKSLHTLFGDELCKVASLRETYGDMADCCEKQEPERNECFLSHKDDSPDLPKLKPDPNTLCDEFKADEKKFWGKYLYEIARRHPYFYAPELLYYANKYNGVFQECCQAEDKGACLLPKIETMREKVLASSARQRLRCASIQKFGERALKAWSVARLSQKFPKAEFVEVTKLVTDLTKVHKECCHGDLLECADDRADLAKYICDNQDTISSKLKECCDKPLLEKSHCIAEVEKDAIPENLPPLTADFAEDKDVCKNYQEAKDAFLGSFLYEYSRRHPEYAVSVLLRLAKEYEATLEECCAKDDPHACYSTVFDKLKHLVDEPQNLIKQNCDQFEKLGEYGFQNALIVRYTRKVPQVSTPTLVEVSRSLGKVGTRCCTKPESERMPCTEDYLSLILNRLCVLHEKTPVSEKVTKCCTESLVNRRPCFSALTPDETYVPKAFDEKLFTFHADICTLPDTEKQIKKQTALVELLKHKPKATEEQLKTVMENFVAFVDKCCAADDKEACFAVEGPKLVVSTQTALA

Consider `CCOC(=O)C1=C[C@@H](OC(CC)CC)[C@H](NC(C)=O)[C@@H](N)C1` [OP, (3R,4R,5 S)-4-acetamido-5-amino-3-(1-ethylepoxy)-1-cyclohexene-1-carboxylic acid ethyl ester phosphate], for which the Kd was 47.8 µM.

The values above are taken from PMC11227190, “Interaction mechanism of oseltamivir phosphate with bovine serum albumin: multispectroscopic and molecular docking study” (BMC Chemistry, 2024).
